Assay results taken from patent EP0754455A1, “PHARMACEUTICAL COMPOSITIONS BASED ON AMINOMETHYLINDOLES AND THEIR THERAPEUTICAL APPLICATION AS NEUROPROTECTORS IN PARKINSON AND ALZHEIMER DISEASES” (CONSEJO SUPERIOR INVESTIGACIONES CIENTIFICAS (CSIC), priority 1995, dated 1996).

Tests used:
[1] = tested on: MPTP neurotoxin; experiment: Protection against the neurotoxicity of MPTP (striatal DA and DOPAC levels); format: in vivo, mice of the C57/BL species; conditions: striate, FA-73 3 mg/Kg i.p. 2 h before MPTP HCl 30 mg/Kg i.p., MPTP repeated on day 2, 24 h after last MPTP
Experimental: Two hours later they were administered MPTP HCl (30 mg/Kg i.p.) and this dose was repeated on the second day. Twenty four hours after the last injection of MPTP the animals were sacrificed. The brains were dissected and determinations made of the dopamine (DA) and 3,4-dihydroxyphenylacetic acid (DOPAC) levels in the striate.

[2] = tested on: ibotenic acid; experiment: Protection against the neurotoxicity of ibotenic acid (brain acetylcholine); format: in vivo, Sprague-Dawley rats; conditions: homogenised rat brain; 3 mg/Kg i.p. 2 h before intracerebroventricular ibotenic acid; ibotenic acid alone 3%; depending on the dose
Experimental: One group of Sprague-Dawley rats was treated with compound FA-73 (3 mg/Kg, i.p.) followed two hours later by an stereotaxic injection of ibotenic acid into the cerebral ventricles at a dose that would induce an Alzheimer type of pathology. After sacrificing the animals, determinations were made of the acetylcholine (AC) in the homogenised brains.

For `C#CCNCc1cc2cc(OCc3ccccc3)ccc2[nH]1` [FA-73], the DOPAC ([1]; control 0.98, MPTP alone 0.54) was 0.93 ± 0.023 µg/g dry tissue, the “Dopamine (DA)” value ([1]; control 10.85, MPTP alone 3.13) was 10.48 ± 0.085 µg/g dry tissue and the acetylcholine level [2] was “up to 85 % of the control”.
